pIC50: −log10 of the molar value. Counter-ions that a name gives are not always drawn.
Key:
[1] = test system: TNF-α; experiment: Cytokine assay, TNF-α release from PBMC; format: cell-based; conditions: Homo sapiens, PBMC, 24 h, 1 μg/mL LPS, supernatant at 24 hours
Procedure, shortened: (§1)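 Cytokine released into the medium was the read-out. Thawed human peripheral blood mononuclear cells in RPMI 1640/10% FBS received test article at 0.01–10 μM, in triplicate wells.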

[2] = test system: IL-2; experiment: Cytokine assay, IL-2 release from PBMC; format: cell-based; conditions: human PBMC, 20 ug/mL PHA, supernatant at 24 hours
Procedure, shortened: as §1

[3] = test system: IFN-γ; experiment: Cytokine assay, IFN-γ release from PBMC; format: cell-based; conditions: human PBMC, 20 ug/mL PHA, supernatant at 24 hours
Procedure, shortened: as §1

[4] = test system: IL-5; experiment: Cytokine assay, IL-5 release from PBMC; format: cell-based; conditions: human PBMC, 20 ug/mL PHA, supernatant at 48 hours
Procedure, shortened: as §1

[5] = test system: IL-10; experiment: Cytokine assay, IL-10 release from PBMC; format: cell-based; conditions: human PBMC, 20 ug/mL PHA, supernatant at 48 hours
Procedure, shortened: as §1

[6] = test system: T1, PDE4 partially purified from human U-937 myeloid leukemia cells; experiment: PDE4 Assay (enzyme from U-937 cells, [3H]cAMP); format: biochemical; conditions: PDE4 from U-937 cells, Tris buffer pH 7.5, 20 minutes at 25° C.
T1 construct: PDE4 partially purified from human U-937 myeloid leukemia cells was used

[7] = test system: CD-1 (Crl.) derived male mice; experiment: Phorbol Ester Induced Mouse Ear Edema Model; format: in vivo; conditions: topical, 6 h; for inhibition in vivo at 3 mg: 3 mg/ear × 2 topical; for inhibition in vivo at 0.02 mg: 0.02 mg/ear × 2 topical; for inhibition in vivo at 0.06 mg: 0.06 mg/ear × 2 topical; for inhibition in vivo at 0.2 mg: 0.2 mg/ear × 2 topical
Protocol: 1. In Vivo Anti-Inflammation Activity in Phorbol Ester Induced Mouse Ear Edema Model
[…] Dexamethasone (1 mg/ear×2) used as the positive control was administered topically to test animals using the same application schedule. Ear swelling was then measured by a Dyer model micrometer gauge at 6 hours after PMA application as an index of inflammation. Percent inhibition was calculated according to the formula: [(Ic−It)/Ic]×100%, where Ic and It refer to increase of ear thickness (mm) in control and treated mice, respectively.

[8] = 1 mg/ear × 2 topical, Acetone:Ethanol/1:1, ear swelling 6 hours after PMA
[9] = 95% Ethanol, ear swelling 6 hours after PMA
[10] = 1 mg/ear topical, Acetone:Ethanol/1:1, ear swelling 6 hours after PMA
[11] = 1 mg/ear × 2 topical, vehicle not given, ear swelling 6 hours after PMA

Row | Structure (SMILES) | pIC50 [1] | pIC50 [2] | pIC50 [3] | pIC50 [4] | pIC50 [5] | pIC50 [6] | inhibition in vivo at 1 mg [7, 8] [%] | also measured
1 | COC(=O)c1ccc(Oc2ccc3c(c2)COB3O)c(F)c1 [D50, 5-(2-Fluoro-4-methoxycarbonylphenoxy)-1-hydroxy-2,1-benzoxaborole] | > 6.00 | > 6.00 | > 6.00 | 5.40 to 6.00 | 5.00 to 5.40 | > 6.00 | 60 to 90 | –
2 | CN1CCN(C(=O)COc2cc(C#N)ccc2Oc2ccc3c(c2)COB3O)CC1 [D29, 4-(2-(5-cyano-2-(1-hydroxy-1,3-dihydrobenzo[c][1,2]oxaborol-5-yloxy)phenoxy)acetyl)-1-methylpiperazine hydrochloride] | > 6.00 | > 6.00 | > 6.00 | > 6.00 | < 5.00 | > 6.00 | < 30 | –
3 | COCCOc1nc(Oc2ccc3c(c2)COB3O)ccc1C#N [D86] | > 6.00 | > 6.00 | > 6.00 | > 6.00 | > 6.00 | > 6.00 | – | inhibition in vivo at 0.063 mg ([7]; 0.063 mg/ear × 2 topical, 95% Ethanol, ear swelling 6 hours after PMA): < 30%; inhibition in vivo at 0.21 mg ([7]; 0.21 mg/ear × 2 topical, 95% Ethanol, ear swelling 6 hours after PMA): < 30%; inhibition in vivo at 0.63 mg ([7]; 0.63 mg/ear × 2 topical, 95% Ethanol, ear swelling 6 hours after PMA): < 30%; inhibition in vivo at 3 mg [7, 9]: < 30%
4 | N#Cc1ccc(Oc2ccc3c(c2)COB3O)c(OCc2ccccn2)c1 [D31, 2-((5-cyano-2-(1-hydroxy-1,3-dihydrobenzo[c][1,2]oxaborol-5-yloxy)phenoxy)methyl)pyridine hydrochloride] | 5.40 to 6.00 | – | – | – | – | – | 30 to 60 | –
5 | N#Cc1ccc(Oc2ccc3c(c2)COB3O)c(CO)c1 [D24, 5-[4-Cyano-2-(hydroxymethyl)phenoxy]-1,3-dihydro-1-hydroxy-2,1-benzoxaborole] | 5.40 to 6.00 | – | – | – | – | – | 60 to 90 | –
6 | N#Cc1ccc(Oc2ccc3c(c2)COB3O)cc1O [D10, 5-(4-Cyano-3-hydroxyphenoxy)-1,3-dihydro-1-hydroxy-2,1-benzoxaborole] | > 6.00 | 5.00 to 5.40 | 5.00 to 5.40 | 5.00 to 5.40 | 5.40 to 6.00 | 5.40 to 6.00 | 60 to 90 | –
7 | COCCNc1ccc(C#N)c(Oc2ccc3c(c2)COB3O)n1 [D101, 2-(1-Hydroxy-1,3-dihydro-benzo[c][1,2]oxaborol-5-yloxy)-6-(2-methoxy-ethylamino)-nicotinonitrile] | > 6.00 | > 6.00 | > 6.00 | > 6.00 | 5.40 to 6.00 | > 6.00 | – | inhibition in vivo at 0.8 mg ([7]; 0.8 mg/ear × 2 topical, 95% Ethanol, ear swelling 6 hours after PMA): < 30%; inhibition in vivo at 2.4 mg ([7]; 2.4 mg/ear × 2 topical, 95% Ethanol, ear swelling 6 hours after PMA): < 30%
8 | CCNC(=O)c1ccc(Oc2ccc3c(c2)COB3O)nc1 [D63, N-Ethyl-6-(1-hydroxy-1,3-dihydrobenzo[c][1,2]oxaborol-5-yloxy) nicotinamide] | > 6.00 | > 6.00 | 5.40 to 6.00 | 5.40 to 6.00 | 5.40 to 6.00 | > 6.00 | < 30 | –
9 | COC(=O)c1ccc(Oc2ccc3c(c2)COB3O)nc1 [D65, Methyl 6-(1-hydroxy-1,3-dihydrobenzo[c][1,2]oxaborol-5-yloxy)nicotinate] | > 6.00 | > 6.00 | > 6.00 | > 6.00 | > 6.00 | > 6.00 | 30 to 60 | –
10 | CN(C)Cc1cc(C#N)ccc1Oc1ccc2c(c1)COB2O [D34, 1-(5-cyano-2-(1-hydroxy-1,3-dihydrobenzo[c][1,2]oxaborol-5-yloxy)phenyl)-N,N-dimethylmethanaminium] | 5.40 to 6.00 | > 6.00 | > 6.00 | 5.40 to 6.00 | 5.40 to 6.00 | 5.40 to 6.00 | – | inhibition in vivo at 1 mg [7, 10]: < 30%
11 | CN1CCN(Cc2cc(C#N)ccc2Oc2ccc3c(c2)COB3O)CC1 [D33, 1-(5-cyano-2-(1-hydroxy-1,3-dihydrobenzo[c][1,2]oxaborol-5-yloxy)benzyl)-4-methylpiperazine-1,4-diium] | > 6.00 | > 6.00 | > 6.00 | > 6.00 | > 6.00 | > 6.00 | – | inhibition in vivo at 1 mg [7, 10]: < 30%
12 | CN(C)c1nc(Oc2ccc3c(c2)COB3O)ccc1C#N [D95, 2-Dimethylamino-6-(1-hydroxy-1,3-dihydro-benzo[c][1,2]oxaborol-5-yloxy)-nicotinonitrile] | > 6.00 | > 6.00 | > 6.00 | > 6.00 | 5.40 to 6.00 | > 6.00 | – | inhibition in vivo at 0.02 mg [7, 9]: < 30%; inhibition in vivo at 0.06 mg [7, 9]: < 30%; inhibition in vivo at 0.2 mg [7, 9]: < 30%
13 | N#Cc1ccc(Oc2ccc3c(c2)COB3O)c(CN2CCOCC2)c1 [D32, 4-(5-cyano-2-1-hydroxy-1,3-dihydrobenzo[c][1,2]oxaborol-5-yloxy)benzyl)morpholine hydrochloride] | > 6.00 | > 6.00 | > 6.00 | > 6.00 | > 6.00 | > 6.00 | < 30 | inhibition in vivo at 1 mg [7, 10]: < 30%
14 | CN(CCO)c1ccc(C#N)c(Oc2ccc3c(c2)COB3O)n1 [D98, 2-(1-hydroxy-1,3-dihydro-benzo[c][1,2]oxaborol-5-yloxy)-6-[(2-hydroxy-ethyl)-methyl-amino]-nicotinonitrile] | > 6.00 | > 6.00 | > 6.00 | > 6.00 | > 6.00 | > 6.00 | – | inhibition in vivo at 0.02 mg [7, 9]: < 30%; inhibition in vivo at 0.06 mg [7, 9]: < 30%; inhibition in vivo at 0.2 mg [7, 9]: 30 to 60%
15 | COc1cc(Oc2ccc3c(c2)COB3O)ncc1C#N [D109, 6-(1-Hydroxy-1,3-dihydro-benzo[c][1,2]oxaborol-5-yloxy)-4-methoxy-nicotinonitrile] | > 6.00 | > 6.00 | > 6.00 | > 6.00 | > 6.00 | > 6.00 | – | inhibition in vivo at 0.02 mg [7, 9]: < 30%; inhibition in vivo at 0.067 mg ([7]; 0.067 mg/ear × 2 topical, 95% Ethanol, ear swelling 6 hours after PMA): < 30%; inhibition in vivo at 0.2 mg [7, 9]: < 30%
16 | CCCOC(=O)c1ccc(Oc2ccc3c(c2)COB3O)cc1 [D73, 4-(1-Hydroxy-1,3-dihydro-benzo[c][1,2]oxaborol-5-yloxy)-benzoic acid propyl ester] | 5.40 to 6.00 | 5.40 to 6.00 | 5.00 to 5.40 | 5.40 to 6.00 | < 5.00 | > 6.00 | – | inhibition in vivo at 1 mg [7, 11]: 30 to 60%; inhibition in vivo at 3 mg ([7]; vehicle not given, ear swelling 6 hours after PMA): 60 to 90%
17 | CNc1nc(Oc2ccc3c(c2)COB3O)ccc1C#N [D110, 6-(1-Hydroxy-1,3-dihydro-benzo[c][1,2]oxaborol-5-yloxy)-2-methylamino-nicotinonitrile] | > 6.00 | > 6.00 | > 6.00 | > 6.00 | < 5.00 | > 6.00 | – | inhibition in vivo at 0.02 mg [7, 9]: < 30%; inhibition in vivo at 0.06 mg [7, 9]: < 30%; inhibition in vivo at 0.2 mg [7, 9]: < 30%
18 | O=Cc1ccc(Oc2ccc3c(c2)COB3O)nc1 [D69, 6-(1-Hydroxy-1,3-dihydrobenzo[c][1,2]oxaborol-5-yloxy)nicotinaldehyde] | 5.40 to 6.00 | 5.40 to 6.00 | 5.40 to 6.00 | – | – | > 6.00 | – | inhibition in vivo at 1 mg [7, 11]: 30 to 60%
19 | CC(C)(C)OC(=O)COc1cc(Oc2ccc3c(c2)COB3O)ccc1C#N [D40, [2-Cyano-5-(1-hydroxy-1,3-dihydro-benzo[c][1,2]oxaborol-5-yloxy)-phenoxy]-acetic acid tert-butyl ester] | > 6.00 | > 6.00 | > 6.00 | > 6.00 | > 6.00 | > 6.00 | – | –
20 | CCOC(=O)c1ccc(Oc2ccc3c(c2)COB3O)c(F)c1 [D51, 5-(2-Fluoro-4-ethoxycarbonylphenoxy)-1-hydroxy-2,1-benzoxaborole] | 5.40 to 6.00 | 5.40 to 6.00 | 5.40 to 6.00 | 5.00 to 5.40 | 5.40 to 6.00 | > 6.00 | – | –
21 | CCOC(=O)c1ccc(Oc2ccc3c(c2)COB3O)c(C(F)(F)F)c1 [D54, 5-(4-Eethoxycarbonyl-2-trifluoromethylphenoxy)-1-hydroxy-2,1-benzoxaborole] | > 6.00 | > 6.00 | > 6.00 | 5.40 to 6.00 | > 6.00 | > 6.00 | – | –
22 | N#Cc1ccc(Oc2ccc3c(c2)COB3O)c(F)c1 [D84, 3-fluoro-4-(1-hydroxy-1,3-dihydrobenzo[c][1,2]oxaborol-5-yloxy)benzonitrile] | 5.40 to 6.00 | 5.40 to 6.00 | 5.00 to 5.40 | 5.00 to 5.40 | 5.40 to 6.00 | > 6.00 | – | –

Source: patent US9012431B2, “Boron-containing small molecules as anti-inflammatory agents” (Anacor Pharmaceuticals, Inc., priority 2008, dated 2015)
